Patent US10568930B2, “Agents and methods of treatment” (Hexima Limited, priority 2014, dated 2020)

Experiments:
Assay type in all cases: cell-based
Conditions in all cases: for Expected inhibition: Ee, Limpel formula; for Synergy: Io-Ee
[1] = system: Candida albicans; test: Antifungal growth assay, defensin plus proteinase inhibitor; set-up: key to Synergy: Io-Ee in % inhibition points; >60 high synergy, <15 none
Description: (§1) Spores are isolated from sporulating fungus spp. growing on yeast extract peptone dextrose agar (Candida albicans, Cryptococcus gattii—1.5×10^6) or ½ strength Sabouraud dextrose agar (Trichophyton interdigitale, Microsporum fulvum—5×10^4). Spores are removed from the plates by the addition of ½ strength potato dextrose broth (PDB). Spore concentrations are measured using a haemocytometer.
(§2) Antifungal assays were conducted in 96 well microtitre plates. Wells were loaded with 10 μL of filter sterilized (0.22 μm syringe filter, Millipore) defensin (10× stock for each final concentration) or water, 10 μL, of filter sterilized (0.22 μm syringe filter, Millipore) proteinase inhibitor or chemical fungicide (10× stock for each final concentration) or water and 80 μL of 5×10^3 spores/mL in ½ strength PDB. The plates were incubated at 24° C. Fungal growth was assayed by measuring optical density at 595 nm (A595) using a microtitre plate reader (SpectraMax Pro M2; Molecular Devices. Growth was allowed to proceed until the optical density (OD) of the fungus in the absence of any test defensin reached an OD of 0.2. Each test was performed in duplicate.
(§3) Synergy is classified as the difference between the observed % fungal growth inhibition caused by the combination of a defensin and a proteinase inhibitor (or a defensin and a chemical fungicide) (Io value) and the expected % fungal growth inhibition of the defensin and the proteinase inhibitor (or the defensin and the chemical fungicide) based on the sum of the % fungal growth inhibition of the defensin and the proteinase inhibitor (or the defensin and the chemical fungicide) on their own (Ee value calculated according to the Limpel formula used by Richer et al. (1987) supra). The difference, Io-Ee, is the synergy value. A synergy value up to 15 means no significant synergy; 15-30 is a low level of synergy; 30-60 is a medium level of synergy; and >60 is a high level of synergy. Synergy calculations are presented in Tables 2 through 7 wherein, as indicated above, Ee is the expected effect from the additive response according to Limpel's formula expressed as percent inhibition and To is the percent inhibition observed. Synergy occurs when To values are higher than Ee values.

[2] = system: Trichophyton interdigitale; test: as above
Description: as §1, §2, §3

[3] = system: Candida albicans; test: Antifungal growth assay, defensin plus chemical fungicide; set-up: key to Synergy: Io-Ee in % inhibition points; <15 none, 15-30 low, 30-60 medium, >60 high
Description: Chemical fungicides were sourced commercially and were prepared as 10× stock solutions in H2O (caspofungin and fenpropimorph) or as a 100× stock in methanol (terbinafine).
as §1, §2, §3

[4] = defensin 4 μM + BPTI (0.625 μM)
[5] = defensin 4 μM + HyCPI6 (2.5 μM)
[6] = defensin 0.5 μM + BPTI (0.625 μM)
[7] = defensin 0.5 μM + HvCPI6 (2.5 μM)
[8] = defensin 0.5 μM + SlCys9N (2.5 μM)
[9] = defensin 2.5 μM + Caspofungin (4 ng/ml)
[10] = defensin 2 μM + BPTI (0.625 μM)
[11] = defensin 2 μM + HyCPI6 (2.5 μM)
[12] = defensin 2 μM + SlCys9N (2.5 μM)
[13] = permeabilizing defensin 1 μM + Caspofungin (2 ng/ml)
[14] = defensin 2 μM + Fenpropimorph (2 ug/ml)
[15] = defensin 4 μM + SlCys9N (2.5 μM)
[16] = defensin 1 μM + HyCPI6 (2.5 μM)
[17] = defensin 1 μM + SlCys9N (2.5 μM)
[18] = defensin 1 μM + BPTI (0.625 μM)
[19] = defensin 1 μM + Fenpropimorph (2 ug/ml)
[20] = non-permeabilizing defensin 1 μM + Caspofungin (2 ng/ml)

**Q.** What does the source list for “HXL001: Class I permeabilizing plant defensin, mature protein SEQ ID NO:26 (RHCLSQSHRFKGLCMSSNNCANVCQTENFPGGECKAEGATRKCFCKKIC; HXL001 Zea mays)”?
**A.** Observed inhibition [1, 4]: 72.6%; Expected inhibition [1, 4]: 2.6%; Synergy [1, 4]: 70.1; Observed inhibition [1, 5]: 84.2%; Expected inhibition [1, 5]: 59.2%; Synergy [1, 5]: 25.0; Observed inhibition ([1]; defensin 4 μM + SlCys9N (2 μM)): 85.0%; Expected inhibition ([1]; defensin 4 μM + SlCys9N (2 μM)): 68.1%; Synergy ([1]; defensin 4 μM + SlCys9N (2 μM)): 16.9; Observed inhibition [2, 6]: 67.4%; Expected inhibition [2, 6]: 36.9%; Synergy [2, 6]: 30.5; Observed inhibition [2, 7]: 84.7%; Expected inhibition [2, 7]: 32.5%; Synergy [2, 7]: 52.2; Observed inhibition [2, 8]: 70.2%; Expected inhibition [2, 8]: 16.8%; Synergy [2, 8]: 53.4; Observed inhibition [3, 9]: 73.4%; Expected inhibition [3, 9]: 11.7%; Synergy [3, 9]: 61.7

**Q.** For “HXL002: Class I permeabilizing plant defensin, mature protein SEQ ID NO:27 (RDCLSQSHKFKGACLSSSNCAAVCRTENFPDGECHTHNFARKCFCKRAC; HXL002 Triticum aestivum)”, which Observed inhibition [3, 9] is on record?
**A.** 40.8%

**Q.** And the Expected inhibition [3, 9]?
**A.** 6.1%

**Q.** And the Synergy [3, 9]?
**A.** 34.7

**Q.** Which results are given for “HXL004: Class I permeabilizing plant defensin, mature protein SEQ ID NO:28 (RTCESQSHRFKGLCFSRSNCASVCHTEGFNGGHCRGFRRRCFCTRHC; HXL004 Nicotiana benthamiana)”?
**A.** Observed inhibition [1, 10]: 91.2%; Expected inhibition [1, 10]: 9.6%; Synergy [1, 10]: 81.6; Observed inhibition [1, 11]: 93.5%; Expected inhibition [1, 11]: 63.6%; Synergy [1, 11]: 29.9; Observed inhibition [1, 12]: 81.8%; Expected inhibition [1, 12]: 55.2%; Synergy [1, 12]: 26.6; Observed inhibition [3, 13]: 92.3%; Expected inhibition [3, 13]: 14.0%; Synergy [3, 13]: 78.3

**Q.** Which results are given for “HXL008: Class I permeabilizing plant defensin, mature protein SEQ ID NO:30 (KVCTKPSKFFKGLCGTDGACTTACRKEGLHSGYCQLKGFLNSVCVCRKHC; HXL008 Picramnia pentandra)”?
**A.** Observed inhibition [1, 10]: 100.0%; Expected inhibition [1, 10]: 0.0%; Synergy [1, 10]: 100.0; Observed inhibition [1, 11]: 63.8%; Expected inhibition [1, 11]: 14.8%; Synergy [1, 11]: 49.0; Observed inhibition [1, 12]: 98.9%; Expected inhibition [1, 12]: 30.2%; Synergy [1, 12]: 68.7; Observed inhibition [3, 14]: 87.3%; Expected inhibition [3, 14]: 46.7%; Synergy [3, 14]: 40.6

**Q.** Which results are given for “HXL009: Class I permeabilizing plant defensin, mature protein SEQ ID NO:33 (TVCMRHNNFYHGPCMSNKDCANSCVQHNLGVGGYCRGKIPFNKECMCTFEC; HXL009)”?
**A.** Observed inhibition [3, 9]: 65.2%; Expected inhibition [3, 9]: 3.7%; Synergy [3, 9]: 61.5

**Q.** How did the Observed inhibition [1, 4] turn out when “HXL012: Class I permeabilizing plant defensin, mature protein SEQ ID NO:25 (RMCKAPSKLFRGMCGIRDSNCDSVCRAEGMAAGDCHGLRRRCICSRPC; HXL012 Amaranthus retroflexus)” was run?
**A.** 89.7%

**Q.** What about the Expected inhibition [1, 4] of the same substance?
**A.** 14.8%

**Q.** What about the Synergy [1, 4] of the same substance?
**A.** 74.9

**Q.** What about the Observed inhibition [1, 5] of the same substance?
**A.** 100.0%

**Q.** And the Expected inhibition [1, 5]?
**A.** 12.3%

**Q.** And the Synergy [1, 5]?
**A.** 87.7

**Q.** What about the Observed inhibition [1, 15] of the same substance?
**A.** 97.3%

**Q.** What about the Expected inhibition [1, 15] of the same substance?
**A.** 34.5%

**Q.** What about the Synergy [1, 15] of the same substance?
**A.** 62.8

**Q.** What about the Observed inhibition [3, 9] of the same substance?
**A.** 51.2%

**Q.** And the Expected inhibition [3, 9]?
**A.** 0%

**Q.** What about the Synergy [3, 9] of the same substance?
**A.** 51.2

**Q.** How did the Observed inhibition [1, 16] turn out when “HXL013: Class I permeabilizing plant defensin, mature protein SEQ ID NO:31 (KDCLTRRHGFQGRCLFDRQCAHVCRSDGFIGGQCRGPLRKCFCSRPC; HXL013 glycine max)” was run?
**A.** 100.0%

**Q.** What about the Expected inhibition [1, 16] of the same substance?
**A.** 10.1%

**Q.** What about the Synergy [1, 16] of the same substance?
**A.** 89.9

**Q.** And the Observed inhibition [1, 17]?
**A.** 100.0%

**Q.** And the Expected inhibition [1, 17]?
**A.** 13.8%

**Q.** And the Synergy [1, 17]?
**A.** 86.2

**Q.** And the Observed inhibition [3, 13]?
**A.** 90.8%

**Q.** And the Expected inhibition [3, 13]?
**A.** 4.3%

**Q.** And the Synergy [3, 13]?
**A.** 86.5

**Q.** How did the Observed inhibition [1, 18] turn out when “HXL015: Class I permeabilizing plant defensin, mature protein SEQ ID NO:32 (RHCLSQSHRFKGMCVSSNNCANVCRTESFPDGECKSHGLERKCFCKKVC; HXL015 Oryza sativa)” was run?
**A.** 100.0%

**Q.** What about the Expected inhibition [1, 18] of the same substance?
**A.** 28.1%

**Q.** What about the Synergy [1, 18] of the same substance?
**A.** 71.9

**Q.** What about the Observed inhibition [1, 16] of the same substance?
**A.** 100.0%

**Q.** And the Expected inhibition [1, 16]?
**A.** 0.0%

**Q.** And the Synergy [1, 16]?
**A.** 100.0

**Q.** What about the Observed inhibition [1, 17] of the same substance?
**A.** 94.7%

**Q.** What about the Expected inhibition [1, 17] of the same substance?
**A.** 0.0%

**Q.** And the Synergy [1, 17]?
**A.** 94.7

**Q.** What about the Observed inhibition [3, 19] of the same substance?
**A.** 71.8%

**Q.** And the Expected inhibition [3, 19]?
**A.** 19%

**Q.** What about the Synergy [3, 19] of the same substance?
**A.** 52.8

**Q.** For “RsAFP2: non-permeabilizing defensin used as comparison (QKLCQRPSGTWSGVCGNNNACKNQCIRLEKARHGSCNYVFPAHKCICYFPC; UniProt P30230 30-80, looked up) [reference compound]”, which Observed inhibition [3, 20] is on record?
**A.** 19.0%

**Q.** What about the Expected inhibition [3, 20] of the same substance?
**A.** 1.7%

**Q.** What about the Synergy [3, 20] of the same substance?
**A.** 17.3
